Experimental data as given in patent EP1362589A1, “The use of R(+)-alpha-(2,3-dimethoxyphenyl)-1-(2-(4-fluorophenyl)ethyl)-4- piperidinemethanol for the treatment of sleep disorders” (Aventis Pharmaceuticals Inc., priority 1998, dated 2000).

Columns and labels:
Assay type in all cases: in vivo
[1] = tested on: newborn Sprague Dawley rats; assay: Depression of genioglossal EMG induced by L-Tryptophan and Pargyline
Experimental: (§1) Experiments were carried out on newborn Sprague Dawley rats from Iffa Credo breeding centre. The animals were anaesthetised by intraperitoneal injection of low doses of sodium pentobarbitone (7-10mg/kg), kept lying (dorsal cubitus) on a warming blanket and were spontaneously ventilating.
(§2) The EMG activity of the genioglossal muscles and the diaphragm were recorded with fine insulated wires (bipolar recordings) inserted within the muscles, filtered (100-3,000 Hz), amplified (x 5-10,000) and integrated (time constant 50 ms). The rib cage movements were recorded via a captor gently touching the lower ribs and/or the abdominal wall. The air flow changes resulting from the respiratory chest movements were recorded via a facial mask and a highly sensitive pressure recorder.
Ten to fifteen minutes after induction of anaesthesia, the animals received first an intraperitoneal injection of the COMPOUND, and a control recording was taken to define the mean amplitude of the integrated EMGs. Then, the animal received an intraperitoneal injection of L-Tryptophan plus Pargyline ("L-Trp+Parg") 10mg/kg and 50mg/kg, respectively, and the changes in EMG amplitudes were checked every 10 minutes and were expressed as % of control values.

[2] = tested on: newborn Sprague Dawley rats; assay: Occurrence of obstructive apneas induced by L-Tryptophan and Pargyline injection
Experimental: Intraperitoneal application of L-Tryptophan (10mg/kg) and Pargyline (50mg/kg) to anaesthesized newborn rats depressed the amplitude of the inspiratory discharges of the genioglossal muscle and induced obstructive apneas (OA).
as §1, §2

[3] = tested on: healthy subjects; assay: Single oral dose in healthy subjects, reported sedation (Example 4A); details: orally
Experimental: Forty percent of the subjects receiving the 20mg dose (2 out of 5) and sixty percent of the subjects receiving the 10mg dose (3 out of 5) experienced mild to moderate sedation. […]

[4] = tested on: patients diagnosed with schizophrenia; assay: Oral twice-daily dosing in patients with schizophrenia, reported insomnia and somnolence (Example 4B); details: orally
Experimental: Forty percent of the subjects receiving the 20mg dose (2 out of 5) and sixty percent of the subjects receiving the 10mg dose (3 out of 5) experienced mild to moderate sedation. […] The following data were reported.

[5] = tested on: healthy subjects; assay: Oral doses in healthy subjects, reported drowsiness (Example 4C); details: for Drowsiness, % of subjects / Drowsiness, n subjects: group n=4
Experimental: The following data were reported. […] Only the group receiving the 72mg dose reported drowsiness ([…]).

[6] = tested on: healthy subjects; assay: Oral doses 3-72 mg in healthy subjects, reported drowsiness (Example 4D); details: 72mg dose (n=4); only this group among 3, 9, 18, 36 and 72mg reported drowsiness
Experimental: Only the group receiving the 72mg dose reported drowsiness (n=3).

## Cn1c(=O)c2[nH]cnc2n(C)c1=O [theophylline, reference compound]
[1]; 10mg/kg, five newborn rats
  prevention of depression of the amplitude of GG inspiratory discharges by L-Trp+Prg: not prevented
[1]; 30mg/kg, 5 animals
  prevention of depression of the amplitude of GG inspiratory discharges by L-Trp+Prg: not prevented
[2]; 10 mg/kg
  prevention of induction of OAs after L-Trp+Prg injection: not prevented
[2]; 30 mg/kg
  prevention of induction of OAs after L-Trp+Prg injection: not prevented

## COc1cccc([C@H](O)C2CCN(CCc3ccc(F)cc3)CC2)c1OC [COMPOUND, R-(+)-α-(2,3-Dimethoxyphenyl)-1-[2-(4-fluorophenyl)ethyl]-4-piperidinemethanol]
[3]; single 10mg dose
  subjects experienced mild to moderate sedation: 3 out of 5
[3]; single 20mg dose
  subjects experienced mild to moderate sedation: 2 out of 5
[4]; 10 mg (5mg twice daily)
  Insomnia, % of subjects: N=0; 0%
  Insomnia, N (number of subjects that reported the effect): N=0; 0%
  Somnolence, % of subjects: 20%
  Somnolence, N (number of subjects that reported the effect): 3
[4]; 20 mg (10mg twice daily)
  Insomnia, % of subjects: 21.4%
  Insomnia, N (number of subjects that reported the effect): 3
  Somnolence, % of subjects: 15.4%
  Somnolence, N (number of subjects that reported the effect): N=1;
[4]; 40 mg (20mg twice daily)
  Insomnia, % of subjects: 23.1%
  Insomnia, N (number of subjects that reported the effect): 3
  Somnolence, % of subjects: 15.4%
  Somnolence, N (number of subjects that reported the effect): N=2;
[5]; 9 mg orally
  Drowsiness, % of subjects: 50%
  Drowsiness, n subjects: 2
[5]; 18 mg orally
  Drowsiness, % of subjects: 100%
  Drowsiness, n subjects: 4
[5]; 36 mg orally
  Drowsiness, % of subjects: 100%
  Drowsiness, n subjects: 4
[5]; 72 mg and above
  drowsiness rating: moderate to severe
[5]; 72 mg orally
  Drowsiness, % of subjects: 75%
  Drowsiness, n subjects: 3
[5]; 108 mg orally
  Drowsiness, % of subjects: 100%
  Drowsiness, n subjects: 4
[5]; 138 mg orally
  Drowsiness, % of subjects: 100%
  Drowsiness, n subjects: 4
[5]; doses below 72 mg
  drowsiness rating: mild or moderate
[6]
  reported drowsiness, n subjects: 3
[1]; pre-treatment 0.1 mg/kg intraperitoneal, ten animals
  prevention of the depression of genioglossal (GG) discharge induced by L-Trp+Parg: did not prevent
[1]; pre-treatment 1mg/kg intraperitoneal, ten newborn rats
  prevention of the depression of genioglossal (GG) discharge induced by L-Trp+Parg: efficient in preventing the GG depression
[1]; pre-treatment 3mg/kg intraperitoneal, ten animals
  prevention of the depression of genioglossal (GG) discharge induced by L-Trp+Parg: confirmed the efficiency
[2]; pre-treatment 0.1 mg/kg
  animals that died of respiratory distress: 4 of the 10
  newborn rats in which L-Trp+Parg injection induced OAs: 9 of 10
[2]; pre-treatment 1mg/kg
  newborn rats that did not present short lasting OAs at all: Five out of ten
  newborn rats which displayed OAs: 5 of 10
  newborn rats with long lasting OAs: one
  survival to L-Trp+Parg injection: all animals survived
[2]; pre-treatment 1mg/kg, among the 5 of 10 which displayed OAs
  animals with infrequent OAs (less than 5 short lasting OAs in 60 minutes): 2
[2]; pre-treatment 1mg/kg, between 20-40 min after the injection, mean curve
  peak frequency of occurrence of short lasting OAs: 4 OAs per 10 minute period
[2]; pre-treatment 3mg/kg
  animals that displayed long lasting OAs: None of the 10
  rats with a total of less than 3 short lasting Oas: 3 of 10
  rats with no short lasting Oas: 5 of 10
  survival: all survived
  treated rats with frequent short lasting Oas: 2 of 10
